In patent US20100210682A1, “Repeated Dosing of TRPV1 Antagonists” (ABBOTT LABORATORIES, priority 2009, published 2010):
Converted amounts (≈) assume the structure as drawn.

Tests used:
[1] = test system: MIA-induced osteoarthritic rats; experiment: Osteoarthritic pain model in rats (MIA), hind limb grip force; type: in vivo, rat; conditions: grip force; for ED50: Rattus norvegicus, po, MIA-induced osteoarthritic rats, p.o., acute dosing, read-out: Acute ED50 (μmol/kg; 95% Cl); for % Efficacy at Reduced Dose, Chronic (BID, 12 days) / % Efficacy at Reduced Dose, Acute: relative to naïve group; for % Efficacy at Reduced Dose, Acute: 1 hour after acute dosing; for analgesic effects following repeated dosing vs acute dosing: BID 12 days, reduced dose
Method: Unilateral knee joint osteoarthritis was induced in the rats by a single intraarticular (i.a.) injection of sodium monoiodoacetate (MIA) (Sigma, St. Louis, Mo.) (3 mg in 0.05 mL sterile isotonic saline) into the joint cavity using a 26 G needle under light (2-4%) halothane (Halocarbon Laboratories, River Edge, N.J.) anesthesia [Bove S E, Calcaterra S L, Brooker R M, Huber C M, Guzman R E, Juneau P L, et al. Weight bearing as a measure of disease progression and efficacy of anti-inflammatory compounds in a model of monosodium iodoacetate-induced osteoarthritis. Osteoarthritis Cartilage 2003; 11:821-30]. Following injection, the animals were allowed to recover from the effects of anesthesia (usually 5-10 min) before returning them to their home cages.
MIA-induced nociception can be assessed by measuring differences in weight bearing (WBD) or decrease in grip force (GF) several days to weeks following MIA injection [Bove S E, Calcaterra S L, Brooker R M, Huber C M, Guzman R E, Juneau P L, et al. Weight bearing as a measure of disease progression and efficacy of anti-inflammatory compounds in a model of monosodium iodoacetate-induced osteoarthritis. Osteoarthritis Cartilage 2003; 11:821-30; Fernihough J, Gentry C, Malcangio M, Fox A, Rediske J, Pellas T, et al. Pain related behaviour in two models of osteoarthritis in the rat knee. Pain 2004; 112:83-93].
In addition to weight-bearing differences, grip strength was also assessed in osteoarthritic rats approximately 21 days after MIA injection. Measurements of peak hind limb grip force were conducted by recording the maximum compressive force exerted on the hind limb strain gauge setup, in a commercially available grip force measurement system (Columbus Instruments, Columbus, Ohio). During testing, each rat was gently restrained by grasping around its rib cage and then allowed to grasp the wire mesh frame (10-12 cm^2) attached to the strain gauge. The experimenter then moved the animal in a rostral-to-caudal direction until the grip was broken. Each rat was sequentially tested twice at an approximately 2 min interval to obtain a raw mean grip force […]. These raw mean grip force data were in turn converted to a maximum hind limb compressive force (CFmax) (gram force)/kg body weight for each animal. A group of age-matched naïve animals was added to each experiment and the data obtained from the different dose groups for the compound being tested were compared to the naïve group.
Compound A was dissolved in 100% polyethylene glycol (PEG 400) for oral administration in a 2 mL/kg injection volume. Compounds B, C, and D were dissolved in 10% ethanol, 20% Tween 80 and 70% polyethylene glycol-400 for oral administration in a 2 mL/kg injection volume. All compounds were dosed orally (p.o.) 60 minutes before behavioral testing.
(§1) In the osteoarthritic pain model, animals were dosed twice-daily for 12 days using a dose that was non-efficacious following a single administration (e.g. 3 μmol/kg p.o. for Compound A). The animals were tested 1 hour after acute dosing (p.o.) and on day 12, 1 hour after oral dosing with either vehicle or the test compound.
The analgesic responses were shown as % effect relative to the healthy, untreated rats (naïve group).

[2] = Plasma levels in osteoarthritic rats after acute and repeated dosing; type: in vivo, rat; conditions: for Plasma Levels, Chronic: 1 hour after last dose on 12 days of BID dosing; for EC50: Rattus norvegicus, osteoarthritic rats, acute dosing
Method: as §1

Plasma Levels, Chronic ([2]; 12 μmol/kg)	EC50 [2]	Plasma Levels, Chronic ([2]; 5 μmol/kg)	Plasma Levels, Chronic ([2]; 15 μmol/kg)	Plasma Levels, Chronic ([2]; 10 μmol/kg)	Compound	ED50 [1]	% Efficacy at Reduced Dose, Chronic (BID, 12 days) ([1]; 12 μmol/kg p.o. BID 12 days)	% Efficacy at Reduced Dose, Acute ([1]; 12 μmol/kg p.o.)	analgesic effects following repeated dosing vs acute dosing [1]	% Efficacy at Reduced Dose, Chronic (BID, 12 days) ([1]; 5 μmol/kg p.o. BID 12 days)	% Efficacy at Reduced Dose, Acute ([1]; 5 μmol/kg p.o.)	% Efficacy at Reduced Dose, Chronic (BID, 12 days) ([1]; 15 μmol/kg p.o. BID 12 days)	% Efficacy at Reduced Dose, Acute ([1]; 15 μmol/kg p.o.)	% Efficacy at Reduced Dose, Chronic (BID, 12 days) ([1]; 10 μmol/kg p.o. BID 12 days)	% Efficacy at Reduced Dose, Acute ([1]; 10 μmol/kg p.o.)
760 at 12 μmol/kg ng/mL	0.915 µg/mL (≈ 2.31 µM)	–	–	–	C[C@@H]1CN(c2ncccc2Cl)CC=C1C(=O)Nc1ccc(C(F)(F)F)cc1 [B, (3S)-3′-chloro-3-methyl-N-[4-(trifluoromethyl)phenyl]-3,6-dihydro-2H-1,2′-bipyridine-4-carboxamide]	17 µmol/kg	80%	30%	significantly increased	–	–	–	–	–	–
–	0.5 µg/mL (≈ 1.29 µM)	86 at 5 μmol/kg ng/mL	150 at 15 μmol/kg ng/mL	–	Cc1nc(Nc2cccc3c2C[C@H](O)CC3)oc1-c1ccc(C(F)(F)F)cc1 [C, (2R)-8-({4-methyl-5-[4-(trifluoromethyl)phenyl]-1,3-oxazol-2-yl}amino)-1,2,3,4-tetrahydronaphthalen-2-ol]	14 µmol/kg	–	–	significantly increased	38%	15%	83%	22%	–	–
–	1 µg/mL (≈ 2.45 µM)	–	–	217 at 10 μmol/kg ng/mL	CCC1(CC)C[C@@H](NC(=O)Nc2cccc3cnc(C)cc23)c2cc(F)ccc2O1 [D, N-[(4R)-2,2-diethyl-6-fluoro-3,4-dihydro-2H-chromen-4-yl]-N′-(3-methylisoquinolin-5-yl)urea]	26 µmol/kg	–	–	significantly increased	–	–	–	–	62%	28%
